From US11780827B2, “Substituted 3-phenoxyazetidin-1-yl-pyrazines” (Boehringer Ingelheim International GmbH, priority 2020, dated 2023)

Each compound was assayed against T1, human GPR52 (Homo sapiens, UniProt Q9Y2T5) (assay: HTRF assay for direct cAMP measurement). Conditions: CHO-K1 cells stably expressing recombinant human GPR52, mean EC50.
T1 construct: expressed in transfected cells; host or cells: CHO-K1
Assay type: cell-based
Description: Homogeneous Time-Resolved Fluorescence (HTRF) Assay for Direct cAMP Measurement.
HTRF cAMP assays were performed using commercially available assay kits according to the manufacturer's instructions (cAMP Dynamic 2 Assay Kit; #62AM4PEJ, Cisbio Bioassays, Bedford, Mass.). An aliquot of CHO-K1 cells stably expressing recombinant human GPR52 is thawed and resuspended in cell buffer (1×PBS (w/o Ca^2+/Mg^2+)) at a density of 4×10^5 cells per mL Test compounds were solubilized in DMSO to 10 mM stock solutions and serially diluted in DMSO using 6-fold dilutions to generate 8-point dose response curves. These serially diluted samples were then diluted 1:50 in compound dilution buffer (1×PBS (w/o Ca^2+/Mg^2+) containing 0.5 mM IBMX, 0.1% BSA) to achieve a 4× stock. The diluted compounds were transferred (5 μL per well) in duplicate to the 384-well assay plate (Optiplate #6007290, PerkinElmer, Waltham, Mass.). Both a positive (reference compound) and negative (non-stimulated vehicle) control are included in each assay run in column 23. The cell suspension was subsequently dispensed into the 384-well assay plates at 15 μL per well (6000 cells) such that the compound was diluted to 1×. […] After a one-hour incubation at room temperature, 10 μL of cAMP D2 reagent followed by 10 μL of cryptate reagent (provided in the Cisbio kit) was added to each well. Plates were then incubated at room temperature for one hour prior to reading. Time-resolved fluorescence measurements were collected on an EnVision® HTRF plate reader (PerkinElmer, Waltham, Mass.). Counts from the plate reader were fit to the cAMP standard curve included on each plate to determine the amount of cAMP in each test well. The % control was calculated based on the positive control set at […]. Dose-response curves were generated from the cAMP data and analyzed using a nonlinear least squares curve-fitting program to obtain EC50 values.

T1 sequence (Q9Y2T5 whole entry): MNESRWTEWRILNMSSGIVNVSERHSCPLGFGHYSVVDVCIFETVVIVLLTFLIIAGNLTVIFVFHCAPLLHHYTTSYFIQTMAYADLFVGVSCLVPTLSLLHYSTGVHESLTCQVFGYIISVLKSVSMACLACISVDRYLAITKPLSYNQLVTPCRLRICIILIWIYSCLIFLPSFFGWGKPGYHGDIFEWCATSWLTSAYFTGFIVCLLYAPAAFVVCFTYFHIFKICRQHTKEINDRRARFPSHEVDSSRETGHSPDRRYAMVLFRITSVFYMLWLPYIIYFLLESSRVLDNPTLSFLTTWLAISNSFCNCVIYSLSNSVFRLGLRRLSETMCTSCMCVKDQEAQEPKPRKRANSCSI

Row | SMILES | EC50 [nM]
1 | O=C(Nc1ccnnc1)c1nccnc1N1CC(Oc2cc(F)cc(C(F)(F)F)c2)C1 [Example 1] | 9
2 | O=C(Nc1ccnnc1)c1nccnc1N1CC(Oc2cc(F)cc(Cl)c2)C1 [Example 2] | 9
3 | O=C(Nc1ccnnc1)c1nccnc1N1CC(Oc2cc(F)cc(F)c2)C1 [Example 3] | 19
4 | O=C(Nc1ccnnc1)c1nccnc1N1CC(Oc2cc(F)c(F)c(F)c2)C1 [Example 4] | 5
5 | O=C(Nc1ccnnc1)c1nccnc1N1CC(Oc2ccc(F)c(F)c2)C1 [Example 5] | 10
6 | O=C(Nc1ccnnc1)c1nccnc1N1CC(Oc2cc(F)cc(C(F)F)c2)C1 [Example 6] | 6
7 | O=C(Nc1ccnnc1)c1nccnc1N1CC(Oc2ccc(F)c(Cl)c2)C1 [Example 7] | 10
8 | O=C(Nc1ccnnc1)c1nccnc1N1CC(Oc2cc(F)c(F)c(Cl)c2)C1 [Example 8] | 4
9 | Cc1cc(NC(=O)c2nccnc2N2CC(Oc3cc(F)cc(C(F)(F)F)c3)C2)cnn1 [Example 9] | 14
10 | Cc1cc(NC(=O)c2nccnc2N2CC(Oc3cc(F)cc(Cl)c3)C2)cnn1 [Example 10] | 4
11 | Cc1cc(NC(=O)c2nccnc2N2CC(Oc3ccc(F)c(Cl)c3)C2)cnn1 [Example 16] | 4
12 | CCc1cc(NC(=O)c2nccnc2N2CC(Oc3cc(F)cc(C(F)(F)F)c3)C2)cnn1 [Example 17] | 11
13 | CCc1cc(NC(=O)c2nccnc2N2CC(Oc3cc(F)cc(Cl)c3)C2)cnn1 [Example 18] | 6
14 | CCc1cc(NC(=O)c2nccnc2N2CC(Oc3ccc(F)c(Cl)c3)C2)cnn1 [Example 19] | 4
15 | CCc1cc(NC(=O)c2nccnc2N2CC(Oc3cc(F)c(F)c(F)c3)C2)cnn1 [Example 20] | 5
16 | CCc1cc(NC(=O)c2nccnc2N2CC(Oc3cc(F)cc(C(F)F)c3)C2)cnn1 [Example 22] | 7
17 | CCc1cc(NC(=O)c2nccnc2N2CC(Oc3cc(F)c(F)c(Cl)c3)C2)cnn1 [Example 23] | 6
18 | CCc1cc(NC(=O)c2nccnc2N2CC(Oc3cc(F)cc(F)c3)C2)cnn1 [Example 24] | 6
19 | Cc1cc(NC(=O)c2nccnc2N2CC(Oc3ccc(F)c(Cl)c3)C2)ncn1 [Example 25] | 4
20 | Cc1cc(NC(=O)c2nccnc2N2CC(Oc3cc(F)c(F)c(F)c3)C2)ncn1 [Example 26] | 6

Row | SMILES | EC50 [nM]
21 | Cc1cc(NC(=O)c2nccnc2N2CC(Oc3cc(F)cc(C(F)F)c3)C2)ncn1 [Example 27] | 11
22 | Cc1cc(NC(=O)c2nccnc2N2CC(Oc3cc(F)cc(F)c3)C2)ncn1 [Example 28] | 12
23 | Cc1cc(NC(=O)c2nccnc2N2CC(Oc3cc(F)cc(Cl)c3)C2)ncn1 [Example 30] | 8
24 | Cc1cc(NC(=O)c2nccnc2N2CC(Oc3cc(F)cc(C(F)(F)F)c3)C2)ncn1 [Example 31] | 17
25 | Cc1cc(NC(=O)c2nccnc2N2CC(Oc3cc(F)c(F)c(Cl)c3)C2)ncn1 [Example 32] | 8
26 | CCc1cc(NC(=O)c2nccnc2N2CC(Oc3cc(F)cc(F)c3)C2)ncn1 [Example 33] | 10
27 | CCc1cc(NC(=O)c2nccnc2N2CC(Oc3cc(F)cc(C(F)(F)F)c3)C2)ncn1 [Example 34] | 30
28 | CCc1cc(NC(=O)c2nccnc2N2CC(Oc3cc(F)cc(Cl)c3)C2)ncn1 [Example 35] | 8
29 | CCc1cc(NC(=O)c2nccnc2N2CC(Oc3cc(F)c(F)c(F)c3)C2)ncn1 [Example 36] | 6
30 | CCc1cc(NC(=O)c2nccnc2N2CC(Oc3ccc(F)c(F)c3)C2)ncn1 [Example 37] | 3
31 | CCc1cc(NC(=O)c2nccnc2N2CC(Oc3cc(F)c(F)c(Cl)c3)C2)ncn1 [Example 38] | 9
32 | CCc1cc(NC(=O)c2nccnc2N2CC(Oc3cc(F)cc(C(F)F)c3)C2)ncn1 [Example 39] | 12
33 | CCc1cc(NC(=O)c2nccnc2N2CC(Oc3ccc(F)c(Cl)c3)C2)ncn1 [Example 40] | 5
34 | O=C(Nc1ccncn1)c1nccnc1N1CC(Oc2cc(F)c(F)c(Cl)c2)C1 [Example 41] | 12
35 | O=C(Nc1ccncn1)c1nccnc1N1CC(Oc2cc(F)c(F)c(F)c2)C1 [Example 42] | 23
36 | O=C(Nc1ccncn1)c1nccnc1N1CC(Oc2ccc(F)c(F)c2)C1 [Example 43] | 45
37 | O=C(Nc1ccncn1)c1nccnc1N1CC(Oc2ccc(F)c(Cl)c2)C1 [Example 44] | 37
38 | O=C(Nc1cc(C(F)(F)F)ncn1)c1nccnc1N1CC(Oc2ccc(F)c(Cl)c2)C1 [Example 45] | 14
39 | O=C(Nc1cc(C(F)(F)F)ncn1)c1nccnc1N1CC(Oc2ccc(F)c(F)c2)C1 [Example 46] | 7

Each compound was assayed against T2, aldehyde oxidase (Homo sapiens, UniProt Q06278) (assay: In vitro metabolite profiling in primary human hepatocytes with or without hydralazine). Conditions: 1 μM test compound.
T2 construct: endogenous in cells; host or cells: cryopreserved primary human hepatocytes
T2 sequence (Q06278 1-1338): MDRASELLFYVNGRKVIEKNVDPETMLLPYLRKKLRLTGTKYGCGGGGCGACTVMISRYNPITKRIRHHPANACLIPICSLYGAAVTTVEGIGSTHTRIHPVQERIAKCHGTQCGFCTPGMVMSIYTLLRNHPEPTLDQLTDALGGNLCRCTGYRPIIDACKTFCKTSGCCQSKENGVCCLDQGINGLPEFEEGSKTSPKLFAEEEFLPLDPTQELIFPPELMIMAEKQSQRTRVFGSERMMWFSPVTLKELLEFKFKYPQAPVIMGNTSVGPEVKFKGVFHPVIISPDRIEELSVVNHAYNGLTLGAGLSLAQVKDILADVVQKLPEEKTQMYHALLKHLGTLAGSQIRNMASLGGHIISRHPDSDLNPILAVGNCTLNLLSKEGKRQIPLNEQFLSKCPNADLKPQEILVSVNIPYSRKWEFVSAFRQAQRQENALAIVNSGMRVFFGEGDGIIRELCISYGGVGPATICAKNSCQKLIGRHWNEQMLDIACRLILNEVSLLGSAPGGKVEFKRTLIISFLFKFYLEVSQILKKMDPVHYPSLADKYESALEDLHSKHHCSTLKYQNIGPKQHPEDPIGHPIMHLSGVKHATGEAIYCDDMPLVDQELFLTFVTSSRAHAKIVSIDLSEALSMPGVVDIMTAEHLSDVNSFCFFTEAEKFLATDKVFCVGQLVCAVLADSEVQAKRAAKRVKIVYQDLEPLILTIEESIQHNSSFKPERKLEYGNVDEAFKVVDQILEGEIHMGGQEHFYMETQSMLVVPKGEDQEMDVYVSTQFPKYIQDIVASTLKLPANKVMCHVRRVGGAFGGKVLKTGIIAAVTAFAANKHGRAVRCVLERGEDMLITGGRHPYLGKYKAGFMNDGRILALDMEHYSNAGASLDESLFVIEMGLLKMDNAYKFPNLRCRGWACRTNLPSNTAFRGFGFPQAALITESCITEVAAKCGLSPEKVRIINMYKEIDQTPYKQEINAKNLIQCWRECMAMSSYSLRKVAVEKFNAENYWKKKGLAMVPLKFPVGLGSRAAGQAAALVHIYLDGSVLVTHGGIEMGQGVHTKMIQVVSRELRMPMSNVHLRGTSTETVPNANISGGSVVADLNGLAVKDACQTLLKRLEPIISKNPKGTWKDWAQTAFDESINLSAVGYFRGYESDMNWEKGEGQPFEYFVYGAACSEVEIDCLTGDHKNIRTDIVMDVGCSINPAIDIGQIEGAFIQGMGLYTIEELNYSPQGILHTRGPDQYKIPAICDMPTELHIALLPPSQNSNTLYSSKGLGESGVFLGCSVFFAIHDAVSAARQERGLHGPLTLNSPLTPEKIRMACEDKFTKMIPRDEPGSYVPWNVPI
Assay type: in vitro ADME
Description: (§1) In vitro metabolite profiling to evaluate the involvement of aldehyde oxidase in addition to CYP-mediated metabolic pathways is based on the semiquantitative analysis of the formation of oxygenated metabolites in primary human hepatocytes and the reduction in their formation in presence of the specific aldehyde oxidase inhibitor hydralazine. If respective hydralazine-inhibitable metabolites are also formed in human liver cytosol incubations in the absence of any cofactors, involvement of aldehyde oxidase in the metabolism of the respective compound is considered likely.
The involvement of aldehyde oxidase in metabolic transformation of the test compound is investigated using primary human hepatocytes in suspension in presence or absence of the specific aldehyde oxidase inhibitor hydralazine. After recovery from cryopreservation, human hepatocytes are incubated in Dulbecco's modified eagle medium supplemented with 3.5 μg glucagon/500 ml, 2.5 mg insulin/500 ml and 3.75 mg/500 ml hydrocortisone) containing 5% human serum.
Following a 30 min preincubation in a cell culture incubator (37° C., 10% CO2) with or without 50 μM hydralazine, test compound solution is spiked into the hepatocyte suspension to obtain a final cell density of 1.0*10^6 to 4.0*10^6 cells/mi (depending on the metabolic turnover rate of the compound observed with primary human hepatocytes), a final test compound concentration of 1 μM, and a final DMSO concentration of 0.05%.
The cells are incubated for six hours (incubator, horizontal shaker) and samples are removed from the incubation after 0, 0.5, 1, 2, 4 or 6 hours, depending on the metabolic turnover rate. Samples are quenched with acetonitrile and pelleted by centrifugation. The supernatant is transferred to a 96-deepwell plate, evaporated under nitrogen and resuspended prior to bioanalysis by liquid chromatography-high resolution mass spectrometry for identification of putative metabolites.

Row | SMILES | % Parent of drug-related material [%]
40 | O=C(Nc1ccnnc1)c1nccnc1N1CC(Oc2cc(F)c(F)c(F)c2)C1 [Example 4] | 94
41 | Cc1cc(NC(=O)c2nccnc2N2CC(Oc3cc(F)cc(Cl)c3)C2)cnn1 [Example 10] | 91

Same assay, conditions: sum of AO-formed metabolites

Row | SMILES | Contribution of AO to oxidative metabolism [%]
42 | O=C(Nc1ccnnc1)c1nccnc1N1CC(Oc2cc(F)c(F)c(F)c2)C1 [Example 4] | 53
43 | Cc1cc(NC(=O)c2nccnc2N2CC(Oc3cc(F)cc(Cl)c3)C2)cnn1 [Example 10] | 22

What follows are compounds tested against T2, aldehyde oxidase (assay: Metabolite formation in pooled human liver cytosol incubations without cofactors). Conditions: human liver cytosol 5 mg/ml, 10 μM test compound, 60 min, metabolite of the same line.
Assay type: in vitro ADME
Set-up: key: yes: Metabolite is formed in presence of human liver cytosol in the absence of cofactors as indication of aldehyde oxidase mediated metabolism; Metabolite is not detected in cytosol incubations
Description: as §1
The involvement of aldehyde oxidase in the metabolic transformation of the test compound is confirmed at 37° C. with pooled human liver cytosol fractions. The incubations, conducted at a final incubation volume of 60 μl per time point, are composed of phosphate buffer (100 mM, pH 7.4), magnesium chloride (5 mM), and human liver cytosol (5 mg/ml). Following a short preincubation period at 37° C., the reactions are initiated by addition of the test compound, resulting in a final concentration of 10 μM. After 0 and 60 minutes, the incubations are terminated by transferring an aliquot into organic solvent, followed by centrifugation (10000 g, 5 min). The resulting supernatant is used for bioanalysis by liquid chromatography-high resolution mass spectrometry for identification of putative metabolites.

Row | SMILES | Formation in human liver cytosol incubations [yes/no]
44 | O=C(Nc1ccnnc1)c1nccnc1N1CC(Oc2cc(F)c(F)c(F)c2)C1 [Example 4] | yes
45 | Cc1cc(NC(=O)c2nccnc2N2CC(Oc3cc(F)cc(Cl)c3)C2)cnn1 [Example 10] | yes
